Data from PubChem BioAssay (NCI).
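Protocol summary: plate cells (96-well), add compound at 5 concentrations, incubate 48 h, interpolate endpoints linearly. The concentration for 50% growth inhibition is given as GI50. TGI: total growth inhibition.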

How the values were obtained:
Experiment in all cases: growth of human tumour cells (NCI), 48 h
SK-MEL-28 melanoma = system: SK-MEL-28 melanoma
TK-10 renal = system: TK-10 renal
HT29 colon = system: HT29 colon
MDA-MB-231 breast = system: MDA-MB-231 breast
T-47D breast = system: T-47D breast
HL-60(TB) leukemia = system: HL-60(TB) leukemia
UACC-257 melanoma = system: UACC-257 melanoma
SK-MEL-5 melanoma = system: SK-MEL-5 melanoma
U251 CNS = system: U251 CNS
SN12C renal = system: SN12C renal
NCI-H460 lung = system: NCI-H460 lung
SF-268 CNS = system: SF-268 CNS
OVCAR-8 ovarian = system: OVCAR-8 ovarian
HCT-116 colon = system: HCT-116 colon
BT-549 breast = system: BT-549 breast
CAKI-1 renal = system: CAKI-1 renal
PC-3 prostate = system: PC-3 prostate
OVCAR-3 ovarian = system: OVCAR-3 ovarian
UO-31 renal = system: UO-31 renal
OVCAR-4 ovarian = system: OVCAR-4 ovarian
CCRF-CEM leukemia = system: CCRF-CEM leukemia
COLO 205 colon = system: COLO 205 colon
HOP-62 NSCLC = system: HOP-62 NSCLC
SW-620 colon = system: SW-620 colon
UACC-62 melanoma = system: UACC-62 melanoma
HOP-92 NSCLC = system: HOP-92 NSCLC
NCI/ADR-RES ovarian = system: NCI/ADR-RES ovarian
NCI-H522 lung = system: NCI-H522 lung
MDA-MB-435 = system: MDA-MB-435
LOX IMVI melanoma = system: LOX IMVI melanoma
786-0 renal = system: 786-0 renal
NCI-H226 lung = system: NCI-H226 lung
RPMI-8226 leukemia = system: RPMI-8226 leukemia
K-562 leukemia = system: K-562 leukemia
EKVX NSCLC = system: EKVX NSCLC
SNB-75 CNS = system: SNB-75 CNS
IGROV1 ovarian = system: IGROV1 ovarian
ACHN renal = system: ACHN renal
OVCAR-5 ovarian = system: OVCAR-5 ovarian
MALME-3M melanoma = system: MALME-3M melanoma
DU-145 prostate = system: DU-145 prostate
M14 melanoma = system: M14 melanoma
A498 renal = system: A498 renal
NCI-H23 lung = system: NCI-H23 lung
A549 NSCLC = system: A549 NSCLC
MCF7 breast = system: MCF7 breast
HS 578T breast = system: HS 578T breast
MOLT-4 leukemia = system: MOLT-4 leukemia
SF-539 CNS = system: SF-539 CNS
SF-295 CNS = system: SF-295 CNS
SR leukemia = system: SR leukemia
KM12 colon = system: KM12 colon
HCC-2998 colon = system: HCC-2998 colon
HCT-15 colon = system: HCT-15 colon
RXF 393 renal = system: RXF 393 renal
SNB-19 CNS = system: SNB-19 CNS
SK-OV-3 ovarian = system: SK-OV-3 ovarian
SK-MEL-2 melanoma = system: SK-MEL-2 melanoma

O=C(Nc1cccc(Cl)c1)Nc1nc2ccc([N+](=O)[O-])cc2s1
GI50 (SK-MEL-28 melanoma): 423 nM
TGI (SK-MEL-28 melanoma): 1670 nM
GI50 (TK-10 renal): 808 nM
TGI (TK-10 renal): 5490 nM
GI50 (HT29 colon): 2820 nM
TGI (HT29 colon): 10700 nM
GI50 (MDA-MB-231 breast): 676 nM
TGI (MDA-MB-231 breast): 3050 nM
GI50 (T-47D breast): 307 nM
TGI (T-47D breast): 1850 nM
GI50 (HL-60(TB) leukemia): 365 nM
TGI (HL-60(TB) leukemia): 1510 nM
GI50 (UACC-257 melanoma): 532 nM
TGI (UACC-257 melanoma): 3490 nM
GI50 (SK-MEL-5 melanoma): 315 nM
TGI (SK-MEL-5 melanoma): 1100 nM
GI50 (U251 CNS): 452 nM
TGI (U251 CNS): 3550 nM
GI50 (SN12C renal): 447 nM
TGI (SN12C renal): 2520 nM
GI50 (NCI-H460 lung): 398 nM
TGI (NCI-H460 lung): 1970 nM
GI50 (SF-268 CNS): 685 nM
TGI (SF-268 CNS): 3550 nM
GI50 (OVCAR-8 ovarian): 1120 nM
TGI (OVCAR-8 ovarian): 11200 nM
GI50 (HCT-116 colon): 330 nM
TGI (HCT-116 colon): 1190 nM
GI50 (BT-549 breast): 415 nM
TGI (BT-549 breast): 1400 nM
GI50 (CAKI-1 renal): 483 nM
TGI (CAKI-1 renal): 2240 nM
GI50 (PC-3 prostate): 317 nM
TGI (PC-3 prostate): 1190 nM
GI50 (OVCAR-3 ovarian): 402 nM
TGI (OVCAR-3 ovarian): 1750 nM
GI50 (UO-31 renal): 388 nM
TGI (UO-31 renal): 1790 nM
GI50 (OVCAR-4 ovarian): 429 nM
TGI (OVCAR-4 ovarian): 2930 nM
GI50 (CCRF-CEM leukemia): 375 nM
TGI (CCRF-CEM leukemia): 3820 nM
GI50 (COLO 205 colon): 1260 nM
TGI (COLO 205 colon): 2840 nM
GI50 (HOP-62 NSCLC): 911 nM
TGI (HOP-62 NSCLC): 3550 nM
GI50 (SW-620 colon): 490 nM
TGI (SW-620 colon): 2390 nM
GI50 (UACC-62 melanoma): 359 nM
TGI (UACC-62 melanoma): 1460 nM
GI50 (HOP-92 NSCLC): 145 nM
TGI (HOP-92 NSCLC): 454 nM
GI50 (NCI/ADR-RES ovarian): 403 nM
TGI (NCI/ADR-RES ovarian): 1820 nM
GI50 (NCI-H522 lung): 331 nM
TGI (NCI-H522 lung): 2010 nM
GI50 (MDA-MB-435): 524 nM
TGI (MDA-MB-435): 2290 nM
GI50 (LOX IMVI melanoma): 436 nM
TGI (LOX IMVI melanoma): 1630 nM
GI50 (786-0 renal): 409 nM
TGI (786-0 renal): 1690 nM
GI50 (NCI-H226 lung): 623 nM
TGI (NCI-H226 lung): 2500 nM
GI50 (RPMI-8226 leukemia): 263 nM
TGI (RPMI-8226 leukemia): 632 nM
GI50 (K-562 leukemia): 355 nM
TGI (K-562 leukemia): 1420 nM
GI50 (EKVX NSCLC): 558 nM
TGI (EKVX NSCLC): 3540 nM
GI50 (SNB-75 CNS): 539 nM
TGI (SNB-75 CNS): 3170 nM
GI50 (IGROV1 ovarian): 617 nM
TGI (IGROV1 ovarian): 3880 nM
GI50 (ACHN renal): 525 nM
TGI (ACHN renal): 2560 nM
GI50 (OVCAR-5 ovarian): 1790 nM
TGI (OVCAR-5 ovarian): 6830 nM
GI50 (MALME-3M melanoma): 367 nM
TGI (MALME-3M melanoma): 1630 nM
GI50 (DU-145 prostate): 693 nM
TGI (DU-145 prostate): 8470 nM
GI50 (M14 melanoma): 660 nM
TGI (M14 melanoma): 2540 nM
GI50 (A498 renal): 244 nM
TGI (A498 renal): 973 nM
GI50 (NCI-H23 lung): 304 nM
TGI (NCI-H23 lung): 989 nM
GI50 (A549 NSCLC): 779 nM
TGI (A549 NSCLC): 7460 nM
GI50 (MCF7 breast): 452 nM
TGI (MCF7 breast): 3050 nM
GI50 (HS 578T breast): 675 nM
TGI (HS 578T breast): 3340 nM
GI50 (MOLT-4 leukemia): 375 nM
TGI (MOLT-4 leukemia): 2340 nM
GI50 (SF-539 CNS): 603 nM
TGI (SF-539 CNS): 2170 nM
GI50 (SF-295 CNS): 527 nM
TGI (SF-295 CNS): 1970 nM
GI50 (SR leukemia): 350 nM
TGI (SR leukemia): 1910 nM
GI50 (KM12 colon): 466 nM
TGI (KM12 colon): 2120 nM
GI50 (HCC-2998 colon): 465 nM
TGI (HCC-2998 colon): 2210 nM
GI50 (HCT-15 colon): 466 nM
TGI (HCT-15 colon): 2030 nM
GI50 (RXF 393 renal): 458 nM
TGI (RXF 393 renal): 1790 nM
GI50 (SNB-19 CNS): 531 nM
TGI (SNB-19 CNS): 4280 nM
GI50 (SK-OV-3 ovarian): 736 nM
TGI (SK-OV-3 ovarian): 5170 nM
GI50 (SK-MEL-2 melanoma): 434 nM
TGI (SK-MEL-2 melanoma): 2030 nM
